The record followed here is patent US20050209104A1, “Dinoflagellate karlotoxins, methods of isolation and uses thereof” (priority 2002, published 2005).

Entries after “also recorded” stand apart in the source; their conditions may differ.

For data set [1], the system named is zebrafish (Danio rerio-60 days old). Briefly: Effect of KmTx 2 on fish (mortality and histology). Type of data set: in vivo. The method, then: Zebrafish (Danio rerio-60 days old) were exposed to 0.1, 0.5, 1, or 2 μg/ml KmTx 2 in 50 ml of aerated reconstituted fresh water (soft) [ASTM, 1992 #125]. Toxin dilutions were made in MeOH (200 μl max. per treatment) and controls were exposed to 200 μl MeOH only. Three fish were exposed per replicate, three replicates per treatment. […] Upon death, fish were preserved in neutral buffered formalin and prepared for histological examination as described in Noga 2000.

In data set [2] the test system is rainbow trout erythrocytes. Briefly: Osmotic protection assay. Type of data set: cell-based. Particulars: 30 mM osmolyte, even at 1 μg/ml KmTx 2. The method, then: The following osmolytes (all purchased from Sigma-Aldrich Co., St Louis, Mo.) were prepared as 30 mM solutions using the Tris buFFer +CaCl2: sucrose (MW 342.3), polyethylene glycol (MW 400), polyethylene glycol (MW 600), maltohexaose (MW 990.0), polyethylene glycol (MW 8,000), dextran (MW 10,000). Osmolarity of each solution was measured using a Vapro 5520 vapor pressure osmometer (Wescor Inc., Logan Utah). […] The osmolarities of PEG 8,000 and 10,000 MW dextran were approximately double this amount (ca. 640 mOsm).
Assays were performed by preparing trout erythrocyte suspensions and toxin dilutions (0, 0.25 0.5, and 1 μg/ml) in the appropriate osmolyte solution and performing the hemolysis assay as described in supplemental materials.

Data set [3] deals with Oxyrrhis marina. Briefly: Effect of KmTx 2 on a potential grazer. The class given is cell-based. The protocol:
(§1) Oxyrrhis marina (1.7×10^4 cells/mil) and K. micrum (CCMP 2282) (3.5×10^4 cells/ml) were exposed, in triplicate, to 0, 0.1, 0.5, and 1 μg/ml KmTx 2 in six well non-tissue culture treated polystyrene plates (Becton Dickinson Labware, Lincoln Park N.J.). The O. marina culture was obtained through single cell isolation from a Chesapeake Bay water sample and was maintained in 15 psu artificial sea water (Instant Ocean Brand) using Rhodomonas sp. (CCMP 767) as a food source. O. marina was starved for 24 hours prior to exposures to reduce the number of food organisms. K. micrum (CCMP 2282) was maintained in 12 psu artificial sea water (Instant Ocean Brand) with f/2 nutrient mixture plus 1% soil extract as described in Deeds et al. (2002). Cell densities were measured at 1 and 24 hours using a Coulter Multisizer II particle counter by enumerating the 7-20 μm and the […] size fractions, respectively, for K. micrum and O. marina using a Coulter Accucomp software package (Coulter Electronics Limited, Miami Fla.). Significant differences (p<0.05) among mean cell numbers for different treatments were tested for using one-way analysis of variance with Scheffe's post hoc test using SPSS Base 10.0 statistical software (SPSS Inc., Chicago, Ill.).
(§2) Hemolytic activity remaining in solution was measured at 1 hour by mixing 100 μl of each treatment with an equal volume of diluted rainbow trout RBC suspension as described above in Example 3.

The subject of data set [4] is rat ventricular cardiac myocytes. Briefly: Ion permeation measurement, Ca^2+ with fura-2 (cardiac myocyte). As to conditions: 60 seconds after application of 0.25 μg/ml. The class given is cell-based.
Data set [5] deals with K. micrum (CCMP 2282). In words: Exposure of Karlodinium micrum to KmTx 2. Type of data set: cell-based. The method, then:
as §1, with “Significant differences (p<0.05) among mean cell numbers for different treatments were tested for using one-way analysis of variance with Scheffe's post hoc test using SPSS Base 10.0 statistical software (SPSS Inc., Chicago, Ill.).” left out
as §2

Data set [6] deals with rat embryonic fibroblast (REF 52) cells. Briefly: Ion permeation measurement, Ca^2+ flux with fura-2 (fibroblasts). The class given is cell-based. The protocol: The following cell types were tested for toxicity due to KmTx 2; rat embryonic fibroblast, rat intestional epithelial, and isolated rabbit primary sensory neurons. Cells were cultured on No. 1 glass coverslips and loaded with fluorescent indicator (fura-2) and were examined on an inverted epifluorescence microscope (model Diaphot; 40×CF Fluor objective, N.A. 1.30; Nikon Corp.) coupled to a spectrofluorometer (model CM1T10I, SPEX Industries) operating in the microfluorometry mode. Cells were bathed in 4 ml of Dulbecco's modified Eagle's medium (DMEM) buffered with HEPES (pH 7.4). KmTx 2 (stock solution in DMSO) was directly bath-applied with gentle convective mixing. Fura-2 was alternately excited at 340 and 380 nm. Fluorescence emission was passed through a 510-nm bandpass filter before photometric quantitation. DATAMAX software (SPEX Industries) was used for data acquisition and instrument control. Origin software (OriginLab Corp.) was used for data reduction and analysis

As for `C=C(CC[C@H](O)[C@H]1O[C@H](C[C@@H](O)[C@H](O)[C@H](C)CCC[C@@H](O)[C@H](O)[C@H](O)[C@@H](C)CC[C@@H](O)[C@H](O)[C@H](C)C[C@@H](O)CCC[C@@H](O)CCC[C@@H](O)/C=C/C[C@@H](O)CO)[C@@H](O)[C@@H](O)[C@@H]1O)[C@H](O)[C@H](O)[C@@H]1C[C@H](O)[C@H](O)[C@@H]([C@H](O)[C@@H](O)/C=C/CCCCCCCC/C=C/C=C/Cl)O1` [KmTx 2], the survival entry in data set [1] (0.1 μg/ml, 6 hr exposure) was “survived the full 6 hr exposure”. Moreover, the “histological examination of gills” value was “loss of secondary structure of gill lamellae and sloughing of gill epithelial tissue” in data set [1] (0.1 μg/ml, 6 hrs); “Severe necrosis and degeneration of gill tissue” in data set [1] (0.5 μg/ml). In data set [1] (0.5 μg/ml), the “time to death, all fish” value was less than 1 h. Further, in data set [2], the “molecular weight of inert osmolyte giving complete prevention of lysis” value is on record as > 8,000 Da. The “reduction of O. marina cell densities” value in data set [3] (1 μg/ml, after 24 hours) is more than 90%. Also, the “cell lysis of O. marina” value in data set [3] (0.5 and 1 μg/ml treatments at 1 hour) is reported as “significant (P<0.05) cell lysis”. In addition, the “hemolytic activity remaining in solution” value in data set [3] (after 1 hour, all KmTx 2 concentrations, O. marina compared to K. micrum exposed cultures) was “reduced”. Besides, the “[Ca^2+]i in cardiac myocyte” value in data set [4] was “dramatically elevated”. Moreover, the “K. micrum culture growth” value in data set [5] (1 μg/ml, after 24 hours) is given as “continued to divide”. The “effect on cultures of K. micrum” value in data set [5] (0.1, 0.5, and 1 μg/ml) is listed as “no effect”. Besides, the “intracellular free Ca^2+ concentration ([Ca^2+]i)” value in data set [6] (0.25 μg/ml) is “marked increase in intracellular free Ca^2+ concentration; also recorded: rapid increase in cytosolic Ca^2+ levels followed by slight recovery”; in data set [6] (1 μg/ml) it was “sharp and irreversible rise in [Ca^2+]i; also recorded: rapid rise in cytosoloc Ca^2+ levels with no recovery”.
